Measured values published in patent publication US20250275966A1, “GABAA RECEPTOR MODULATOR SALTS, PARTICLES, AND USES THEREOF” (Engrail Therapeutics, Inc., priority 2022, published 2025).
Where a name gives a salt, the structure may show the parent alone.

Assays:
[1] = Oral non-human primate crossover PK study (Example 7); type: in vivo, cynomolgus monkeys; settings: four male cynomolgus monkeys, single PO capsule, 34.2 mg/kg fumarate salt (M-3, N-3); for C24(h): 24 hours post-dose, 30 mg/kg free base (K-13); for AUC / Tmax: equivalent on a molar basis to 30 mg/kg free base (K-13)
Excerpt: An objective of this study is to determine the Pharmacokinetic (PK) profile of the Test Article following a single oral administration to four male non-human primate cynomolgus monkeys with one (1) week wash out periods.
Four male animals are used for this study, and the four study animals are used for each of three dosing phases with one-week washout periods. Food is withheld overnight prior to dose administration, and food is returned four hours post-dose administration. Water is provided ad libitum by automatic watering device. Two of the four animals are previously treated with Compound 1, and the other two are Compound 1 naive. Test Article (M-3, N-3, or K-13) are provided as capsulized powders; stored at room temperature protected from light in, for example, a polyolefin bottle.

[2] = Pharmacokinetic analysis of Compound 1 and its salts after oral capsule administration (Example 4); type: in vivo, cynomolgus monkeys; settings: 3 male cynomolgus monkeys, single PO capsule, 30 mg/kg, plasma Compound 1
Protocol: A pharmacokinetic analysis was performed comparing administration of Compound 1 with certain salts of Compound 1 after oral (PO) administration in 3 male cynomolgus monkeys. The subjects received a single PO oral gavage of active pharmaceutical ingredient (API) (e.g., Compound 1 fumarate, Compound 1 sulfate, Compound 1 hydrochloride, Compound 1 phosphate, Compound 1 tosylate, Compound 1 malonate, Compound 1 maleate, or Compound 1 free base) in a capsule at a dose of 30 mg/kg. Following dose administration, the animals were flushed with approximately 10 milliliters of tap water to ensure all API was administered. Animals were observed twice daily and at sample collection time-points for any abnormal clinical and behavioral signs. Body weights were taken prior to dosing and weekly thereafter until study termination. Blood samples (0.5 mL) were collected pre-dose, 15 minutes, 30 minutes, and 1, 2, 4, 6, 8, 10, 12, and 24 hours post-dose. Each blood sample was collected from the monkey's femoral, saphenous or other available vein via direct venipuncture, placed into a polypropylene tube containing K2EDTA as the anticoagulant, and gently inverted several times to mix. The blood samples were kept on wet ice until centrifugation. Blood was centrifuged within 10 minutes of collection. The samples were centrifuged at a temperature of 4° C., at 3,000 g, for 5 minutes. The resulting plasma (˜0.25 mL) was divided into two equal aliquots (125 μL each) into polypropylene tubes, designated as Set A and Set B, after centrifugation. Plasma samples designated for certain metabolites (Set A) were treated with 12.5 μL of 2 M ascorbic acid (plasma: ascorbic acid=[…], v:v) prepared beforehand by combining 0.352 g of ascorbic acid into 1 mL of sterile water in a glass vial and mixing thoroughly. […] Once plasma was prepared, the samples were snap frozen on dry ice. All plasma samples were stored frozen below −70° C. until analyzed.

[3] = Intrinsic dissolution rate and solubility in 0.1 N HCl with 1% Tween 80 (USP <1087>); type: physicochemical
Protocol: The intrinsic dissolution rate was determined by forming compacted pellets of approximately 75 mg of API using a compression force of 1200 pounds of force, and each pellet (die surface area: 0.5 cm^2) was immersed into a flat bottom vessel containing 500 mL of medium (aqueous 0.1 N HCl with 1% Tween 80 (polyoxyethylene (20) sorbitan monooleate)), using a Distek 2100A dissolution bath, and Distek Circulator/heater (set to 37° C.), with a paddle speed of 100 rpm. An aliquot of the sample (1 mL) was pulled from dissolution media at 15, 30, 45, 60, 75, 90, 105, and 120 minutes, filtered, and analyzed by HPLC. The slope of the dissolution profile corresponded to an intrinsic dissolution rate of hemi-fumarate salt Form B of 6.2 μg/(min·cm^2) as compared to 8.9 μg/(min·cm^2) for Compound 1 (free base). Determination of intrinsic dissolution rate (IDR) was performed for Compound 1 and seven different salts of Compound 1 according to USP <1087> in 0.1 N hydrochloric acid with 1% Tween 80 (Polyoxyethylene […] sorbitan monooleate). Compacted pellets containing approximately 75 mg API were prepared using a compression force of 1200 pounds of force, and each pellet (die surface area: 0.5 cm^2) was immersed into a flat bottom vessel containing 500 mL of medium, using a Distek 2100A dissolution bath, and Distek Circulator/heater (set to 37° C.), with a paddle speed of 100 rpm. An aliquot of the sample (1 mL) was pulled from dissolution media at 15, 30, 45, 60, 75, 90, 105, and 120 minutes, filtered, and analyzed by HPLC. HPLC for IDR and solid-state stability analyses were conducted with an Agilent 1260 Infinity system equipped with a G1311B Quad pump, […] Autosampler, G1330B auto-sampler thermostat, G1316A Thermostatted Column Compartment with a column switch valve, and […] diode array detector.

[4] = Solid-state stability by HPLC and XRPD; type: physicochemical; settings: 40° C./75% RH, after 4 weeks
Protocol: Solid-state stability of the fumarate salt of Compound 1 was assessed after storage at the following conditions for 2 and 4 weeks by HPLC and XRPD: 40° C./75% RH (opened); and 50° C./ambient RH (closed). […] Solid-state stability of Compound 1 and seven salts of Compound 1, as in Example 8, was assessed after storage at the following conditions for 2 and 4 weeks by HPLC and PXRD: 40° C./75% RH (opened); and 50° C./ambient RH (closed). HPLC for IDR and solid-state stability analyses were conducted with an Agilent 1260 Infinity system equipped with a G1311B Quad pump, […] Autosampler, G1330B auto-sampler thermostat, G1316A Thermostatted Column Compartment with a column switch valve, and […] diode array detector.

[5] = Exposure after oral dose of micronized vs non-micronized particles of Compound 1 free base (Example 3); type: in vivo; settings: male Cynomolgus monkeys, QD, 300 mg/kg, plasma, Mean (n = 3)
Protocol: Exposure of Compound 1 free base following oral (PO) dose administration of 300 mg/kg/dose of micronized particles (Example 1) and 300 mg/kg/dose non-micronized particles (Example 2) were assessed in male Cynomolgus monkeys. Blood samples were collected in K2EDTA coated polypropylene tubes from the femoral vein and plasma was separated. Samples were drawn at the following time points: pre-dose, 15 min, 30 min, 1, 2, 4, 8, 10, 12, 14, 24, 30, and 48 hours post-dose. The concentrations of Compound 1 were determined by LC-MS/MS and pharmacokinetic parameters were determined using Phoenix WinNonlin v8.0) software. [table]

SMILES: [2H]C([2H])([2H])C(c1cc2nnc(-c3cc(F)ccc3F)n2nc1OCc1ncnn1C)(C([2H])([2H])[2H])C([2H])([2H])[2H] [Compound K-13, 3-(2,5-difluorophenyl)-7-[1,1-di(methyl-d3)ethyl-2,2,2-d3]-6-[(1-methyl-1H-1,2,4-triazol-5-yl)methoxy]-1,2,4-triazolo[4,3-b]pyridazine]
- C24(h) [1]: 42 ng·mL
- AUC [1]: 1192 ng·h/mL
- Tmax [1]: 14 h

SMILES: [2H]C([2H])([2H])C(c1cc2nnc(-c3cc(F)ccc3F)n2nc1OCc1ncnn1C)(C([2H])([2H])[2H])C([2H])([2H])[2H] [Compound M-3]
- C24(h) [1]: 603 ng·mL
- AUC [1]: 17826 ng·h/mL
- Tmax [1]: 10 h

SMILES: [2H]C([2H])([2H])C(c1cc2nnc(-c3cc(F)ccc3F)n2nc1OCc1ncnn1C)(C([2H])([2H])[2H])C([2H])([2H])[2H] [Compound N-3]
- C24(h) [1]: 684 ng·mL
- AUC [1]: 21540 ng·h/mL
- Tmax [1]: 4 h

SMILES: [2H]C([2H])([2H])C(c1cc2nnc(-c3cc(F)ccc3F)n2nc1OCc1ncnn1C)(C([2H])([2H])[2H])C([2H])([2H])[2H] [Hydrochloride Salt, 3-(2,5-difluorophenyl)-7-[1,1-di(methyl-d3)ethyl-2,2,2-d3]-6-[(1-methyl-1H-1,2,4-triazol-5-yl)methoxy]-1,2,4-triazolo[4,3-b]pyridazine]
- AUClast [2]: 25402 ng·h/mL
- Cmax [2]: 1583 ng/mL
- Tmax [2]: 4.0 h
- Solubility, time point 15 min ([3]; 0.1 N HCl with 1% Tween 80, 37° C., 500 mL, pellet about 75 mg, 15 min): 0.452 µg/mL
- Solubility, time point 120 min ([3]; 0.1 N HCl with 1% Tween 80, 37° C., 500 mL, pellet about 75 mg, 120 min): 1.13 µg/mL
- Intrinsic Dissolution Rate IDR ([3]; 0.1 N HCl with 1% Tween 80, 37° C., paddle 100 rpm, die surface 0.5 cm^2, listed as HCl Salt): 6.9 μg/(min · cm^2)
- solubility at 30 min ([3]; 0.1 N HCl with 1% Tween 80, 37 °C, aqueous with cosolvent or surfactant or cyclodextrin, 500 mL, pellet about 75 mg, 30 min, read-out: Solubility, time point 30 min): 0.358 µg/mL
- solubility at 45 min ([3]; 0.1 N HCl with 1% Tween 80, 37 °C, aqueous with cosolvent or surfactant or cyclodextrin, 500 mL, pellet about 75 mg, 45 min, read-out: Solubility, time point 45 min): 0.561 µg/mL
- solubility at 60 min ([3]; 0.1 N HCl with 1% Tween 80, 37 °C, aqueous with cosolvent or surfactant or cyclodextrin, 500 mL, pellet about 75 mg, 60 min, read-out: Solubility, time point 60 min): 0.59 µg/mL
- solubility at 75 min ([3]; 0.1 N HCl with 1% Tween 80, 37 °C, aqueous with cosolvent or surfactant or cyclodextrin, 500 mL, pellet about 75 mg, 75 min, read-out: Solubility, time point 75 min): 0.723 µg/mL
- solubility at 90 min ([3]; 0.1 N HCl with 1% Tween 80, 37 °C, aqueous with cosolvent or surfactant or cyclodextrin, 500 mL, pellet about 75 mg, 90 min, read-out: Solubility, time point 90 min): 0.847 µg/mL
- solubility at 105 min ([3]; 0.1 N HCl with 1% Tween 80, 37 °C, aqueous with cosolvent or surfactant or cyclodextrin, 500 mL, pellet about 75 mg, 105 min, read-out: Solubility, time point 105 min): 0.989 µg/mL
- solubility ([3]; 0.1 N HCl with 1% Tween 80, 37 °C, aqueous with cosolvent or surfactant or cyclodextrin, sum of the 15-120 min time points, read-out: Solubility, Cumulative): 5.65 µg/mL
- Solid-state stability, XRPD pattern [4]: small signal at 10° 2θ of Compound 1 (free base)

SMILES: [2H]C([2H])([2H])C(c1cc2nnc(-c3cc(F)ccc3F)n2nc1OCc1ncnn1C)(C([2H])([2H])[2H])C([2H])([2H])[2H] [micronized, 3-(2,5-difluorophenyl)-7-[1,1-di(methyl-d3)ethyl-2,2,2-d3]-6-[(1-methyl-1H-1,2,4-triazol-5-yl)methoxy]-1,2,4-triazolo[4,3-b]pyridazine]
- AUClast/Dose [5]: 530 ± 537 kg·ng·h/mL/mg
- AUC∞/Dose [5]: 650 ± 730 kg·ng·h/mL/mg
- AUC(0-inf) ([5]; male, cynomolgus monkey, po): 195000 ± 219000 ng·h/mL
- AUC(0-t) ([5]; male, cynomolgus monkey, po): 159000 ± 161000 ng·h/mL
- Cmax ([5]; male, cynomolgus monkey, po, read-out: Cmax): 6900 ± 5500 ng/mL
- Tmax ([5]; male, cynomolgus monkey, po, read-out: Tmax): 4 ± 3.5 h

SMILES: [2H]C([2H])([2H])C(c1cc2nnc(-c3cc(F)ccc3F)n2nc1OCc1ncnn1C)(C([2H])([2H])[2H])C([2H])([2H])[2H] [non-micronized, 3-(2,5-difluorophenyl)-7-[1,1-di(methyl-d3)ethyl-2,2,2-d3]-6-[(1-methyl-1H-1,2,4-triazol-5-yl)methoxy]-1,2,4-triazolo[4,3-b]pyridazine]
- AUClast [5]: 89225 ± 104664 ng·h/mL
- AUClast/Dose [5]: 297 ± 349 kg·ng·h/mL/mg
- AUC∞ [5]: 98365 ± 119106 ng·h/mL
- AUC∞/Dose [5]: 328 ± 397 kg·ng·h/mL/mg
- Cmax [5]: 5373 ± 4112 ng/mL
- Tmax [5]: 3.30 ± 1.20 h
